From patent US20050203063A1, “Proteasome pathway inhibitors and related methods” (priority 2003, published 2005)

How the values were obtained:
26S proteasomes [1] = molecular target: T1, 26S proteasomes; assay: Deubiquitination of UbSic1 by epoxomicin-treated purified 26S proteasomes; type: biochemical, S. cerevisiae; conditions: titration, epoxomicin-treated proteasomes
T1 construct: IC50, deubiquitination of UbSic1; other: titration, epoxomicin-treated proteasomes; other: 5 μM C92
Procedure: (§1) FIG. 2. […] (A) Degradation of UbSic1. Purified 26S proteasomes were preincubated in the presence or absence of test compounds. UbSic1 was then added, and degradation assayed as described (6). Py mock refers to the pyridine solvent in which C23 was dissolved which was marginally inhibitory, unlike the 50% DMSO vehicle used for other test compounds. (B) Deubiquitination of UbSic1. […] UbSic1 was then added, and deubiquitination was assayed as described (6). (C) Titration curve with varying concentrations of C92 to determine half-maximal inhibition of deubiquitination. (D) C92 inhibits binding of UbSic1 to 26S proteasomes. Purified 26S proteasomes immobilized on anti-Flag beads were incubated with UbSic1 in the presence or absence of C92 as described (6). Following binding, beads were washed and analyzed by immunoblotting with anti-Sic1 polyclonal serum. (E) Binding of UbSic1 to the polyUb binding proteins Rpn10 and Rad23 is inhibited by C92. Recombinant Gst-Rpn10 and Gst-Rad23 (1 μg each) were immobilized on glutathione sepharose beads and then incubated with UbSic1 in the presence or absence of C92. Following binding, beads were washed and analyzed by immunoblotting. (F) C92 interacts with multiUb chains. Equivalent amounts (5 μg) of purified Gst, Gst-fusion protein or multiUb chains were incubated with C92 or C1 before being loaded on a 5% native polyacryamide gel. Electrophoresis was performed as described (33). (G) C92 and C59 interact specifically with K48-linked Ub on native gels. Ub (16 μM), K48-linked diUb (8 μM), or tetraUb chains (8 μM) were preincubated with a two fold-molar excess (monoUb and diUb), or equivalent amounts (tetraUb) of test compounds before being resolved on native gels as in (G). Tetra K29Ub, K48Ub, and K63Ub refer to tetraubiquitin chains wherein the ubiquitins are linked via K29, K48, or K63.
FIG. 5. […] Assays were performed and evaluated as summarized in the legend to FIG. 2B. The metal chelating reagent phenanthroline is designated as “P”, and “Py” refers to the pyridine solvent that is used as the solvent for C23. (B) Titration curve for C59. (C) Inhibition of binding of ubiquitin conjugates to Gst-Rpn10 by C92 and C59, but not other compounds. The experiment was performed as described for FIG. 2E.
(§2) 26S proteasomes were purified from S. cerevisiae cells expressing a Flag-tagged proteasomal subunit (PRE1) essentially as described (28).
Reactions were processed as above.

Gst-Rpn10 = molecular target: T2, Gst-Rpn10 (Saccharomyces cerevisiae, UniProt P38886); assay: Binding of UbSic1 to Gst-Rpn10 on glutathione sepharose beads
T2 construct: made in house
T2 sequence (P38886 1-268): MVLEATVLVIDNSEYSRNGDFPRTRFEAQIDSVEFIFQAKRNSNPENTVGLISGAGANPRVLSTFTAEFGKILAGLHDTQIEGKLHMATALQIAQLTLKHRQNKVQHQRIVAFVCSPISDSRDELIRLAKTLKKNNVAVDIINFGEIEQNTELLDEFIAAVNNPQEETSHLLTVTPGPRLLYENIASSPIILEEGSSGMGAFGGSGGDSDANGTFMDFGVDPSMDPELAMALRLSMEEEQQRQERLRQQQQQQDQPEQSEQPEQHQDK
Procedure: as §1, with “(F) C92 interacts with multiUb chains. Equivalent amounts (5 μg) of purified Gst, Gst-fusion protein or multiUb chains were incubated with C92 or C1 before being loaded on a 5% native polyacryamide gel. Electrophoresis was performed as described (33). (G) C92 and C59 interact specifically with K48-linked Ub on native gels. Ub (16 μM), K48-linked diUb (8 μM), or tetraUb chains (8 μM) were preincubated with a two fold-molar excess (monoUb and diUb), or equivalent amounts (tetraUb) of test compounds before being resolved on native gels as in (G). Tetra K29Ub, K48Ub, and K63Ub refer to tetraubiquitin chains wherein the ubiquitins are linked via K29, K48, or K63.” left out
FIG. 5. […] Assays were performed and evaluated as summarized in the legend to FIG. 2B. […]
Recombinant Gst-Rpn10 and Gst-Rad23 were immobilized on glutathione sepharose beads. […] Aliquots were analyzed by immunoblotting.

[2] = molecular target: T3, K29-linked ubiquitin chains (Homo sapiens, UniProt P0CG47); assay: Native gel mobility shift of ubiquitin chains; type: binding; conditions: tetraUb, equivalent amount of compound
T3 construct: tetraubiquitin chains wherein the ubiquitins are linked via K29, K48, or K63
Procedure: as §1
(§3) Selective recognition of the multiubiquitin chain by the 26S proteasome constitutes the first step in UbSic1 degradation (9). Applicants therefore assayed the binding of UbSic1 to 26S proteasomes pre-treated with C92. […] Previous work by applicants has shown that multiubiquitin chain receptors Rad23 and Rpn10 serve a redundant role in sustaining UbSic1 degradation in vitro and in vivo (14). In the absence of the ubiquitin-binding activity of Rpn10, UbSic1 is not recruited, deubiquitinated, or degraded by purified 26S proteasomes. Thus, to further establish the mechanism by which C92 inhibited binding of UbSic1 conjugates to the proteasome, applicants tested whether C92 could interfere with binding of UbSic1 to recombinant Rpn10 and Rad23. […] To distinguish whether C92 inhibited proteolysis by binding to proteasome receptor proteins or to the Ub chain on Sic 1, applicants exploited the negative charge of C92 to determine whether compound binding induced a mobility shift of the target proteins on native gels. C92 was pre-incubated with recombinant Rpn10, Rad23, or a mixture of Ub chains containing 2-7 Ub molecules. […] Remarkably, the binding of C92 and C59 to ubiquitin chains was exquisitely linkage specific. Ubiquitin molecules can be linked to each other in vivo through different internal lysines, including K29, K48, and K63(19). The K48-linked chain is the principal targeting signal in proteolysis whereas K63-linked chains are implicated in enzyme regulation; no physiological function for K29-linked chains has yet been discovered (20).

[3] = molecular target: T4, K48-linked ubiquitin chains (Homo sapiens, UniProt P0CG47); assay: Native gel mobility shift of ubiquitin chains; type: binding; conditions: for native gel mobility of K48-linked ubiquitin chains: diUb with two fold-molar excess, tetraUb with equivalent amount of compound
T4 construct: a mixture of Ub chains containing 2-7 Ub molecules
Procedure: as §1, §3

[4] = molecular target: T5, K63-linked ubiquitin chains (Homo sapiens, UniProt P0CG47); assay: Native gel mobility shift of ubiquitin chains; type: binding; conditions: tetraUb, equivalent amount of compound
T5 construct: tetraubiquitin chains wherein the ubiquitins are linked via K29, K48, or K63
Procedure: as §1, §3

26S proteasomes [5] = molecular target: T6, 26S proteasomes (Saccharomyces cerevisiae, UniProt P38886+P43588); assay: 26S proteasome integrity on native gel (Coomassie Blue); type: biochemical; conditions: concentrations that inhibit ubiquitin-dependent proteolysis
T6 construct: 26S proteasomes were purified from S. cerevisiae cells expressing a Flag-tagged proteasomal subunit (PRE1); made in house; host or cells: S. cerevisiae cells expressing Flag-tagged PRE1
Procedure: FIG. 6. […] (A) Purified 26S proteasomes were preincubated with test compounds before being resolved on a native gel. Following electrophoresis, the gel was stained with Coomassie Blue. […] Same as (A), except that following electrophoresis, the gel was incubated with fluorescent substrate to determine peptidase activity, which was visualized using a UV transilluminator (9). […] (C) Untreated 26S proteasomes were resolved on a native gel. Following electrophoresis, the gel was incubated with the peptidase substrate in the presence of ubistatin.
as §2

T6 sequence (P43588 whole entry, one chain of several): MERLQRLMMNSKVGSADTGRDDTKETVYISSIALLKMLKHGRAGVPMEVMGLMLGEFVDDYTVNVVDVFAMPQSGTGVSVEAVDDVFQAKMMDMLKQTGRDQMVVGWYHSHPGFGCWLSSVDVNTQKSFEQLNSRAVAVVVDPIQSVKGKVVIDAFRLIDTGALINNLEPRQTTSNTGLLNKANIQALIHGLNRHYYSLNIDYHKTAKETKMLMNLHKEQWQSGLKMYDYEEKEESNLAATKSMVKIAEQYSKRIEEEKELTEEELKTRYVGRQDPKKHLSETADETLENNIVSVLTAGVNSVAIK

Compound | IC50 (26S proteasomes [1]) [nM] | inhibition of binding of UbSic1 to Rpn10 (Gst-Rpn10) | native gel mobility of K29-linked chains [2] | native gel mobility of K48-linked ubiquitin chains [3] | native gel mobility of K63-linked chains [4] | effect on 26S proteasome integrity / assembly (26S proteasomes [5]) | native gel mobility of multiUb chains ([3]; mixture of Ub chains containing 2-7 Ub molecules)
O=S(=O)(O)c1ccc2cc3c(cc2c1)NN(c1ccc(/C=C/c2ccc(N4Nc5cc6ccc(S(=O)(=O)O)cc6cc5N4)cc2S(=O)(=O)O)c(S(=O)(=O)O)c1)N3 [Compound 59] | 1000 | abrogated binding | little or no effect | efficiently shifted | little or no effect | without affecting | 
O=C(Nc1ccc(/C=C/c2ccc(NC(=O)c3cc(S(=O)(=O)O)c4cccnc4c3O)cc2S(=O)(=O)O)c(S(=O)(=O)O)c1)c1cc(S(=O)(=O)O)c2cccnc2c1O [Compound 92] | ~400 | abolished binding | little or no effect | efficiently shifted | little or no effect | without affecting | bound Ub chains
